This experiment deals with HCV genotype 1b replicon cells (Huh-luc). As to the kind of experiment: HCV 1b replicon combination study (luciferase, MacSynergy II analysis). It is filed as cell-based. The conditions noted are these: for Interaction: combination of Compound 1 and Compound 2, MacSynergy II. How it is done: HCV genotype 1b replicon cells (Huh-luc) were obtained from Reblikon (Mainz, Germany). The replicon in these cells is designated I389luc-ubi-neo/NS3-3′/ET and encodes a selectable resistance marker (neomycin phosphotransferase) as well as the firefly luciferase reporter gene. Huh-luc cells were maintained in Dulbecco's Modified Eagle's Medium (DMEM; GIBCO, Carlsbad, Calif.) supplemented with 10% fetal bovine serum (FBS; Hyclone, Logan, Utah) and 0.5 mg/mL of G-418 (GIBCO). Cells were passaged twice a week and maintained at subconfluent levels.
Replicon cells were seeded in 96-well plates at a density of 5×10^3 cells per well in 100 μL of DMEM culture medium, excluding G-418. Compounds 1 and 2 were serially diluted 1:3 in 100% DMSO (Sigma). These serial dilutions were added to the cells at a 1:200 dilution to achieve a final concentration of 0.5% DMSO in a total volume of 200 μL. Plates were incubated at 37° C. for 3 days, after which culture media were removed and cells were lysed and assayed for luciferase activity using a commercial luciferase assay (Promega, Madison, Wis.). HCV replication levels in drug-treated samples were expressed as a percentage of those in untreated controls (defined as 100%), and data were fit to the logistic dose response equation y=a/(1+(x/b)c) using XLFit4 software (IDBS, Emeryville, Calif.). EC50 values were calculated from the resulting equations as described previously (Delaney, W. E., et al., Antimicrobial Agents Chemotherapy, 45(6):1705-1713 (2001)). Replicon cells were seeded in 96-well plates at a density of 5×10^3 cells per well in 100 μL of culture medium. Compounds 1 and 2 were serially diluted in 100% DMSO as described above and added in a matrix format to 96-well plates, achieving a defined set of different drug concentrations and ratios in a final volume of 200 μL and a final DMSO concentration of 0.5%. […] Cells were incubated for three days and analyzed for luciferase expression as indicated above. […]
The calculated volumes of surface deviations are expressed in nM^2%. […]
A general note: In antiviral work, replicon cells carry a viral genome segment that copies itself.

SMILES strings stand for the structures.

For the compound `CC(C)(C)NC(=O)N[C@H](C(=O)N1C[C@H]2[C@@H]([C@H]1C(=O)NC(CC1CCC1)C(=O)C(N)=O)C2(C)C)C(C)(C)C` (stereo partly drawn) [Compound 2, (1R,2S,5S)-3-[N-(N-tert-Butylcarbamoyl)-3-methyl-L-valyl]-N-(2-cyclobutyl-1-oxamoylethyl)-6,6-dimethyl-3-azabicyclo[3.1.0]hexane-2-carboxamide], the Interaction result is given as “Moderate synergy”. Further, the “Antagonism Volume” value (in combination with Compound 1, 3 days, mean ± SD of two or three independent experiments in triplicate) was −8.0 ± 13.6 nM^2. `Fc1ccccc1-c1nc2ccn(Cc3ccc(-c4ccc(C(F)(F)F)cc4C(F)(F)F)nn3)cc-2n1` [Compound 1, 5-({6-[2,4-bis(trifluoromethyl)phenyl]pyridazin-3-yl}methyl)-2-(2-fluorophenyl)-5H-imidazo[4,5-c]pyridine]: the Interaction result is on record as “moderate synergistic interaction”.

The record behind these values is patent US20100324060A1, “PHARMACEUTICAL COMPOSITIONS USEFUL FOR TREATING HCV” (Gilead Sciences, Inc., priority 2009, published 2010).
